In PubChem BioAssay (NCI):
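Growth conditions: 96-well plates. Treatment: test compound, 48 hours, 5 concentrations. Analysis: linear interpolation between bracketing concentrations; unreached endpoints set to highest concentration. GI50 is the concentration that inhibits growth by half. TGI is the concentration that stops growth completely.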

Experiments:
Test in all cases: growth of human tumour cells (NCI), 48 h
HOP-62 NSCLC = tested on: HOP-62 NSCLC
MALME-3M melanoma = tested on: MALME-3M melanoma
NCI-H23 lung = tested on: NCI-H23 lung
NCI-H460 lung = tested on: NCI-H460 lung
OVCAR-3 ovarian = tested on: OVCAR-3 ovarian
SN12C renal = tested on: SN12C renal
SR leukemia = tested on: SR leukemia
A498 renal = tested on: A498 renal
NCI/ADR-RES ovarian = tested on: NCI/ADR-RES ovarian
DMS 273 small cell lung = tested on: DMS 273 small cell lung

Row | SMILES | TGI (HOP-62 NSCLC) [µM] | TGI (MALME-3M melanoma) [µM] | TGI (NCI-H23 lung) [µM] | TGI (NCI-H460 lung) [µM] | TGI (OVCAR-3 ovarian) [µM] | TGI (SN12C renal) [µM] | TGI (SR leukemia) [µM] | TGI (A498 renal) [µM] | TGI (NCI/ADR-RES ovarian) [µM] | TGI (DMS 273 small cell lung) [µM] | GI50 (A498 renal) [µM] | GI50 (HOP-62 NSCLC) [µM] | GI50 (MALME-3M melanoma) [µM] | GI50 (NCI-H23 lung) [µM] | GI50 (NCI-H460 lung) [µM] | GI50 (NCI/ADR-RES ovarian) [µM] | GI50 (OVCAR-3 ovarian) [µM] | GI50 (SN12C renal) [µM] | GI50 (SR leukemia) [µM]
1 | O=C(NN1C(=O)C(Cl)C1c1ccc([N+](=O)[O-])cc1)c1ccccc1O (centres undefined) | > 100 | > 100 | > 100 | > 100 | > 100 | > 100 | > 100 | – | – | – | – | – | – | – | – | – | – | – | –
2 | CC(=O)O[C@H]1CC[C@H]2[C@@H]3CC[C@H]4Nc5c(cnn5S(C)(=O)=O)C[C@]4(C)[C@H]3CC[C@]12C | 77.4 | > 100 | > 100 | > 100 | 78.1 | > 100 | > 100 | > 100 | > 100 | – | – | – | – | – | – | – | – | – | –
3 | N/C(=N\N=C/c1cc(Cl)cc(Cl)c1O)NO | 12.5 | 24 | 19.8 | 14.2 | 53.6 | 33.4 | – | 18.8 | 26.6 | 11.9 | – | – | – | – | – | – | – | – | –
4 | CCOC(=O)C1CCn2c(nc3c(=O)n(C)c(=O)n(C)c32)S1 (centres undefined) | > 100 | > 100 | > 100 | > 100 | > 100 | > 100 | > 100 | – | – | > 100 | – | – | – | – | – | – | – | – | –
5 | Cn1nc2ccc3nccc(NCCNCCCl)c3c2n1 | > 100 | > 100 | – | > 100 | > 100 | > 100 | > 100 | – | – | > 100 | – | – | – | – | – | – | – | – | –
6 | CCNC(=O)CCCCC(=O)c1c(C)[nH]c(/C=C2\N=C(c3ccc[nH]3)C=C2OC)c1C | 2.88 | 5.74 | 24.5 | 4.19 | 3.67 | 6.16 | 32.8 | 21 | 10.8 | – | 8.19 | 1.1 | 2.32 | 4.5 | 1.95 | 2.94 | 1.85 | 2.47 | 1.65
7 | COC(=O)C[C@](O)(CCC(C)(C)O)C(=O)O[C@@H]1C(OC)=C[C@]23CCCN2CCc2cc4c(cc2[C@H]13)OCO4 | 0.59 | 0.109 | 0.323 | 0.0793 | 0.459 | 1.07 | – | 0.26 | 59.8 | 0.131 | – | – | – | – | – | – | – | – | –
8 | CN(C)S(=O)(=O)c1cccc(-c2nc3sc4c(c3c(=O)[nH]2)CCCC4)c1 | > 100 | – | – | > 100 | – | – | – | – | > 100 | – | – | 3.73 | – | – | 0.931 | 2.83 | – | – | –
9 | O=C(/C=C/c1ccsc1)c1ccc(Cl)s1 | > 100 | > 100 | > 100 | > 100 | – | > 100 | 54 | > 100 | > 100 | – | – | – | – | – | – | – | – | – | –
10 | CC1=NN(C(=O)c2ccccc2)C(=O)C1N=Nc1ccccc1C(=O)O (centres undefined) | > 100 | > 100 | > 40.6 | > 100 | > 27.5 | > 100 | – | > 100 | > 100 | > 100 | – | – | – | – | – | – | – | – | –
11 | CCOC(=O)CCc1c(C)c2c(O)cc(O)cc2oc1=O | > 100 | > 100 | > 100 | > 100 | > 100 | > 100 | – | > 100 | > 100 | > 100 | – | – | – | – | – | – | – | – | –
